In US20080269162A1, “Novel Medicaments for Anti-Retroviral Treatments” (priority 2006, published 2008):

System: NDK virus
Assay: Number of syncitia in MT4 cell culture infected by NDK virus
Format: cell-based, HIV
Set-up: key to Number of Syncitia in the Culture (wells), J3 / Number of Syncitia in the Culture (wells), J4 / Number of Syncitia in the Culture (wells), J5 / Number of Syncitia in the Culture (wells), J6: the absence of syncitia is indicated by a minus (−) sign; the (+), +, ++, ++T signs indicate an increasing number of syncitia in each well; the (+), +, ++, ++T signs indicate an increasing number of syncitia in each well; the (+), +, ++, ++T signs indicate an increasing number of syncitia in each well; the (+), +, ++, ++T signs indicate an increasing number of syncitia in each well; The indication “T” indicates the death of the cells
Settings: for Number of Syncitia in the Culture (wells), J3: day 3; for Number of Syncitia in the Culture (wells), J4: day 4; for Number of Syncitia in the Culture (wells), J5: day 5; for Number of Syncitia in the Culture (wells), J6: day 6
Method: Then infection of the cells was carried out by adding to each well, with the exception of those wells being used as control cells, 50 μL of previously titrated virus dilution.
After an additional hour of incubation, the plate was centrifuged and the supernatant containing the residual virus was discarded.
After 3 days of culture, the cells were diluted to half and the syncitia were observed using the inverse microscope from day 3 to day 7 after having been placed in suspension.
In the third case, the MT4 cell culture was preincubated for one hour at 37° C., then the cells were infected, the whole was subjected to incubation for one hour at 37° C., then to centrifugation with the elimination of the supernatant containing the virus that had not penetrated into the cells.
In each of the four types of experiments that have just been described, and as previously indicated, the cells were diluted to half after three days of culture and then the syncitia were observed using the inverted microscope from day 3 to day 7.
In the experiments described in greater detail hereinafter, the absence of syncitia is indicated by a minus (−) sign and the (+), +, ++, ++T signs indicate an increasing number of syncitia in each well.
The indication “T” indicates the death of the cells.

[1] = Continuous, before, during and after infection, 0.4 μm

Which results are given for 3′-azidothymidine [AZT]?
Number of Syncitia in the Culture (wells), J3 (After infection, 0.4 μm): −; Number of Syncitia in the Culture (wells), J4 (After infection, 0.4 μm): −; Number of Syncitia in the Culture (wells), J5 (After infection, 0.4 μm): −; Number of Syncitia in the Culture (wells), J6 (After infection): −; Number of Syncitia in the Culture (wells), J3 (Before infection, 0.4 μg/mL): −; Number of Syncitia in the Culture (wells), J4 (Before infection, 0.4 μg/mL): + and −; Number of Syncitia in the Culture (wells), J5 (Before infection, 0.4 μg/mL): ++ and −; Number of Syncitia in the Culture (wells), J6 (Before infection, 0.4 μg/mL): T and (+); Number of Syncitia in the Culture (wells), J3 [1]: −; Number of Syncitia in the Culture (wells), J4 [1]: −; Number of Syncitia in the Culture (wells), J5 [1]: −; Number of Syncitia in the Culture (wells), J6 (Continuous, before, during and after infection): −; Number of Syncitia in the Culture (wells), J3 (During infection, 0.4 μm): −; Number of Syncitia in the Culture (wells), J4 (During infection, 0.4 μm): −; Number of Syncitia in the Culture (wells), J5 (During infection, 0.4 μm): −; Number of Syncitia in the Culture (wells), J6 (During infection): −
